Test results from patent US20090099195A1 (ASTRAZENECA AB, priority 2007, published 2009).

target: T1, hP2X3 (human Purinergic P2X receptors subtype 3), clone B (Homo sapiens, UniProt P56373); assay: hP2X3 FLIPR calcium (Fluo-4) antagonist assay, clone B; conditions: Human P2X3 FLIPR Clone B IC50 (nM), RLE cells expressing hP2X3 clone B (NM_002559); agonist 500 nM α,β-methylene-ATP
T1 sequence (P56373 1-397): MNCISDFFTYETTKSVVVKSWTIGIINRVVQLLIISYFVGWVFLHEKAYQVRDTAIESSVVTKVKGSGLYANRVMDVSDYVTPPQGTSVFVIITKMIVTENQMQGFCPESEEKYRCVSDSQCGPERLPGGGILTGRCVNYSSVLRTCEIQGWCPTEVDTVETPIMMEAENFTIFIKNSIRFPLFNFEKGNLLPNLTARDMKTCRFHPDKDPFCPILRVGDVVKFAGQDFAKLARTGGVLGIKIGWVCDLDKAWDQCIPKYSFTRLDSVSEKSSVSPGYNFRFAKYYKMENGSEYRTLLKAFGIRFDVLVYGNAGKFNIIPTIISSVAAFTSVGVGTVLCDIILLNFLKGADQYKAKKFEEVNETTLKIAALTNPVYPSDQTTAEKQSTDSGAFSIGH

SMILES | IC50 [nM]
CC(=O)N1CCN(c2nc(N[C@@H]3CCC[C@H]3c3ccc(Cl)cc3)c3c(n2)C(=O)N(C(C)C)C3)CC1 (racemic) [Example 33, 2-(4-acetylpiperazin-1-yl)-4-{[trans-2-(4-chlorophenyl)cyclopentyl]amino}-6-isopropyl-5,6-dihydro-7H-pyrrolo[3,4-d]pyrimidin-7-one] | 580
CC(=O)N1CCN(c2nc(NC(C)C3COc4ccccc4O3)c3c(n2)C(=O)N(C(C)C)C3)CC1 (single isomer, unassigned) [Example 179, 2-(4-acetylpiperazin-1-yl)-4-(1-(2,3-dihydrobenzo[b][1,4]dioxin-2-yl)ethylamino)-6-isopropyl-5H-pyrrolo[3,4-d]pyrimidin-7(6H)-one] | 190
CC(=O)N1CCN(c2nc3c(c(N4CCCC4c4ccc5ncccc5c4)n2)CN(C(C)C)C3=O)CC1 (single isomer, unassigned) [Example 284, 4-(4-acetylpiperazin-1-yl)-8-propan-2-yl-2-(2-quinolin-6-ylpyrrolidin-1-yl)-3,5,8-triazabicyclo[4.3.0]nona-1,3,5-trien-7-one] | 9900
CC(C)N1Cc2c(NCc3cnc4ccccc4c3)nc(N3CCN4CCCC4C3)nc2C1=O (stereo in doubt) [Example 141, (R)-2-(Hexahydro-pyrrolo[1,2-a]pyrazin-2-yl)-6-isopropyl-4-[(quinolin-3-ylmethyl)-amino]-5,6-dihydro-pyrrolo[3,4-d]pyrimidin-7-one] | 7600
CC(=O)N1CCN(c2nc3c(c(N(Cc4ccc(F)cc4)C4CCCC4)n2)CN(C(C)C)C3=O)CC1 [Example 4, 2-(4-acetylpiperazin-1-yl)-4-[cyclopentyl(4-fluorobenzyl)amino]-6-isopropyl-5,6-dihydro-7H-pyrrolo[3,4-d]pyrimidin-7-one] | 800
CC(=O)N1CCN(c2nc(NC(C)c3ccc(C(C)(C)C)cc3)c3c(n2)C(=O)N(C(C)C)C3)CC1 (stereo not drawn) [Example 5, 2-(4-acetylpiperazin-1-yl)-4-{[1-(4-tert-butylphenyl)ethyl]amino}-6-isopropyl-5,6-dihydro-7H-pyrrolo[3,4-d]pyrimidin-7-one] | 440
CC(C)N1Cc2c(NC(c3ccccc3)c3ccc(Cl)cc3)nc(NCCN(C)C)nc2C1=O (stereo not drawn) [Example 9, 4-{[(4-chlorophenyl)(phenyl)methyl]amino}-2-{[2-(dimethylamino)ethyl]amino}-6-isopropyl-5,6-dihydro-7H-pyrrolo[3,4-d]pyrimidin-7-one] | 91
CC(=O)N1CCN(c2nc(NC(c3ccc(C(C)C)cc3)C(C)C)c3c(n2)C(=O)N(C(C)C)C3)CC1 (stereo not drawn) [Example 10, 2-(4-acetylpiperazin-1-yl)-6-isopropyl-4-{[1-(4-isopropylphenyl)-2-methylpropyl]amino}-5,6-dihydro-7H-pyrrolo[3,4-d]pyrimidin-7-one] | 1200
CC(=O)N1CCN(c2nc(NC(C)Cc3ccc(F)cc3)c3c(n2)C(=O)N(C(C)C)C3)CC1 (stereo not drawn) [Example 12, 2-(4-acetylpiperazin-1-yl)-4-{[2-(4-fluorophenyl)-1-methylethyl]amino}-6-isopropyl-5,6-dihydro-7H-pyrrolo[3,4-d]pyrimidin-7-one] | 3900
CC(C)N1Cc2c(NC(c3ccc(F)cc3)c3ccc(F)cc3)nc(NCCN(C)C)nc2C1=O [Example 17, 4-{[bis(4-fluorophenyl)methyl]amino}-2-{[2-(dimethylamino)ethyl]amino}-6-isopropyl-5,6-dihydro-7H-pyrrolo[3,4-d]pyrimidin-7-one] | 70

The remaining molecules from weak to strong by IC50, led by results:

IC50 [nM] | SMILES
4800 | CC(=O)N1CCN(c2nc(NC3CCCc4ccccc43)c3c(n2)C(=O)N(C(C)C)C3)CC1 (stereo not drawn) [Example 1, 2-(4-acetylpiperazin-1-yl)-6-isopropyl-4-(1,2,3,4-tetrahydronaphthalen-1-ylamino)-5,6-dihydro-7H-pyrrolo[3,4-d]pyrimidin-7-one]
4600 | CC(=O)N1CCN(c2nc3c(c(N(Cc4ccccc4)CC4CCCO4)n2)CN(C(C)C)C3=O)CC1 (stereo not drawn) [Example 3, 2-(4-acetylpiperazin-1-yl)-4-[benzyl(tetrahydrofuran-2-ylmethyl)amino]-6-isopropyl-5,6-dihydro-7H-pyrrolo[3,4-d]pyrimidin-7-one]
1900 | CCOC(=O)C(CNc1nc(N2CCN(C(C)=O)CC2)nc2c1CN(C(C)C)C2=O)c1ccccc1 (stereo not drawn) [Example 2, ethyl 3-{[2-(4-acetylpiperazin-1-yl)-6-isopropyl-7-oxo-6,7-dihydro-5H-pyrrolo[3,4-d]pyrimidin-4-yl]amino}-2-phenylpropanoate]
1400 | COc1ccc(CC2CCCN2c2nc(N3CCN(C(C)=O)CC3)nc3c2CN(C(C)C)C3=O)cc1 (single isomer, unassigned) [Example 288, 2-(4-acetylpiperazin-1-yl)-6-isopropyl-4-[2-[(4-methoxyphenyl)methyl]pyrrolidin-1-yl]-5H-pyrrolo[3,4-d]pyrimidin-7-one]
970 | CC(=O)N1CCN(c2nc(NC(C)C3COc4ccccc4O3)c3c(n2)C(=O)N(C(C)C)C3)CC1 (single isomer, unassigned) [Example 178, 2-(4-acetylpiperazin-1-yl)-4-(1-(2,3-dihydrobenzo[b][1,4]dioxin-2-yl)ethylamino)-6-isopropyl-5H-pyrrolo[3,4-d]pyrimidin-7(6H)-one]
220 | CC(=O)N1CCN(c2nc(NC(C)c3nc(-c4ccccc4)no3)c3c(n2)C(=O)N(C(C)C)C3)CC1 (stereo not drawn) [Example 13, 2-(4-acetylpiperazin-1-yl)-6-isopropyl-4-{[1-(3-phenyl-1,2,4-oxadiazol-5-yl)ethyl]amino}-5,6-dihydro-7H-pyrrolo[3,4-d]pyrimidin-7-one]
160 | CC(=O)N1CCN(c2nc(NC(C)c3ccc(CC(C)C)cc3)c3c(n2)C(=O)N(C(C)C)C3)CC1 (stereo not drawn) [Example 6, 2-(4-acetylpiperazin-1-yl)-4-{[1-(4-isobutylphenyl)ethyl]amino}-6-isopropyl-5,6-dihydro-7H-pyrrolo[3,4-d]pyrimidin-7-one]
100 | CC(=O)N1CCN(c2nc3c(c(N4CCCC4c4ccc5ncccc5c4)n2)CN(C(C)C)C3=O)CC1 (single isomer, unassigned) [Example 285, 4-(4-acetylpiperazin-1-yl)-8-propan-2-yl-2-(2-quinolin-6-ylpyrrolidin-1-yl)-3,5,8-triazabicyclo[4.3.0]nona-1,3,5-trien-7-one]
85 | Cc1ccc(C(Nc2nc(NCCN(C)C)nc3c2CN(C(C)C)C3=O)c2ccccc2)cc1 (stereo not drawn) [Example 7, 2-{[2-(dimethylamino)ethyl]amino}-6-isopropyl-4-{[(4-methylphenyl)(phenyl)methyl]amino}-5,6-dihydro-7H-pyrrolo[3,4-d]pyrimidin-7-one]
42 | CCC(C)N1Cc2c(NCc3cnc4ccccc4c3)nc(N3CCN(C(C)=O)CC3)nc2C1=O (single isomer, unassigned; (-)) [Example 309, (−)-2-(4-acetylpiperazin-1-yl)-4-(3-quinolylmethylamino)-6-sec-butyl-5H-pyrrolo[3,4-d]pyrimidin-7-one]
29 | CCC(C)N1Cc2c(NCc3cc4ccccc4cn3)nc(N3CCN(C(C)=O)CC3)nc2C1=O (single isomer, unassigned; (+)) [Example 310, (+)-2-(4-acetylpiperazin-1-yl)-4-(3-isoquinolylmethylamino)-6-sec-butyl-5H-pyrrolo[3,4-d]pyrimidin-7-one]
